# Where two headings read alike, the source gives them in different places.
# Experiments:
# UACC-257 = test: NCI SRB growth inhibition (single dose 10 µM / five-dose); format: cell-based, human; conditions: Homo sapiens; for inhibition at 10 µM: UACC-257 (Melanoma), read-out: GI%; for GI50: UACC-257, Melanoma, five-dose
# Summary of the method: (§1)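 Cytotoxicity in the NCI panel of sixty human tumour lines was measured by sulforhodamine B protein staining. Each agent was tested in DMSO-derived dilutions at five concentrations, and TGI was read where treated absorbance equalled time-zero absorbance.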
# TK-10 = test: as above; format: cell-based, human; conditions: Homo sapiens; for inhibition at 10 µM: TK-10 (Renal cancer), read-out: GI%; for GI50: TK-10, Renal cancer, five-dose
# Summary of the method: as §1
# HOP-62 = test: as above; format: cell-based, human; conditions: Homo sapiens; for inhibition at 10 µM: HOP-62 (Non-small cell lung cancer), read-out: GI%; for GI50: HOP-62, Non-small cell lung cancer, five-dose
# Summary of the method: as §1
# HOP-92 = test: as above; format: cell-based, human; conditions: Homo sapiens; for inhibition at 10 µM: HOP-92 (Non-small cell lung cancer), read-out: GI%
# Summary of the method: as §1
# HCC-2998 = test: as above; format: cell-based, human; conditions: Homo sapiens; for inhibition at 10 µM: HCC-2998 (Colon cancer), read-out: GI%; for GI50: HCC-2998, Colon cancer, five-dose
# Summary of the method: as §1
# HCT-116 = test: as above; format: cell-based, human; conditions: Homo sapiens, HCT-116; for inhibition at 10 µM: read-out: GI%
# Summary of the method: as §1
# RPMI-8226 = test: as above; format: cell-based, human; conditions: Homo sapiens; for inhibition at 10 µM: RPMI-8226 (Leukemia), read-out: GI%; for GI50: RPMI-8226, Leukemia, five-dose
# Summary of the method: as §1
# SNB-75 = test: as above; format: cell-based, human; conditions: Homo sapiens; for inhibition at 10 µM: SNB-75 (CNS cancer), read-out: GI%; for GI50: SNB-75, CNS cancer, five-dose
# Summary of the method: as §1
# [1] = test system: NCI panel of 60 tumor cell lines; test: NCI SRB growth inhibition, whole panel mean (single dose 10 µM / five-dose); format: cell-based, human; conditions: Homo sapiens; for GI50: mean over NCI cancer cell lines, five-dose
# Protocol: Screening of cytotoxic activity against a panel of sixty human tumor cell lines The selected compounds by NCI were evaluated for their anticancer activity in a two- stage process. […] Then, the output from the single dose screen is reported as a mean graph. […] Assay protocol. […] For a typical screening experiment, cells are inoculated into 96 well microtiter plates in 100 µL at plating densities ranging from 5000 to 40,000 cells/well depending on the doubling time of individual cell lines. […] After 24 h, two plates of each cell line are fixed in situ with TCA, to represent a measurement of the cell population for each cell line at the time of drug addition (Tz). The experimental drugs are solubilized in dimethyl sulfoxide at 400-fold the desired final maximum test concentration and stored frozen prior to use. At the time of drug addition, an aliquot of frozen concentrate is thawed and diluted to twice the desired final maximum test concentration with complete medium containing 50 µg/mL gentamicin. Additional four, 10-fold or ½ log serial dilutions are made to provide a total of five drug concentrations plus control. Aliquots of 100 mL of these different drug dilutions are added to the appropriate microtiter wells already containing […] of medium, resulting in the required final drug concentrations. […] For adherent cells, the assay is terminated by the addition of cold TCA. […] The supernatant is discarded, and the plates are washed five times with tap water and air dried. Sulforhodamine B (SRB) solution ([…]) at 0.4% (w/v) in 1% acetic acid is added to each well, and plates are incubated for 10 min at room temperature. After staining, unbound dye is removed by washing five times with 1% acetic acid and the plates are air dried. […] Using the seven absorbance measurements [time zero, (Tz), control growth, (C), and test growth in the presence of drug at the five concentration levels (Ti)], the percentage growth is calculated at each of the drug concentrations levels. Percentage growth inhibition is calculated as: [(Ti Tz)/(C–Tz)] x 100 for concentrations for which Ti>/=Tz and [(Ti-Tz)/Tz] x 100 for concentrations for which Ti < Tz. Three dose response parameters are calculated for each experimental agent. […] The drug concentration resulting in total growth inhibition (TGI) is calculated from Ti = Tz. […] Values are calculated for each of these three parameters if the level of activity is reached; however, if the effect is not reached or is exceeded, the value for that parameter is expressed as greater or less than the maximum or minimum concentration tested.
# VEGFR-2 = molecular target: T1, VEGFR-2 (Homo sapiens, UniProt P35968); test: VEGFR-2 kinase assay kit (BPS), Kinase-Glo Max luminescence; format: biochemical; conditions: VEGFR-2, single dose 10 µM, duplicate, mean ± SD
# T1 construct: purchased BPS Biosciences 40325
# T1 sequence (P35968 20-1356): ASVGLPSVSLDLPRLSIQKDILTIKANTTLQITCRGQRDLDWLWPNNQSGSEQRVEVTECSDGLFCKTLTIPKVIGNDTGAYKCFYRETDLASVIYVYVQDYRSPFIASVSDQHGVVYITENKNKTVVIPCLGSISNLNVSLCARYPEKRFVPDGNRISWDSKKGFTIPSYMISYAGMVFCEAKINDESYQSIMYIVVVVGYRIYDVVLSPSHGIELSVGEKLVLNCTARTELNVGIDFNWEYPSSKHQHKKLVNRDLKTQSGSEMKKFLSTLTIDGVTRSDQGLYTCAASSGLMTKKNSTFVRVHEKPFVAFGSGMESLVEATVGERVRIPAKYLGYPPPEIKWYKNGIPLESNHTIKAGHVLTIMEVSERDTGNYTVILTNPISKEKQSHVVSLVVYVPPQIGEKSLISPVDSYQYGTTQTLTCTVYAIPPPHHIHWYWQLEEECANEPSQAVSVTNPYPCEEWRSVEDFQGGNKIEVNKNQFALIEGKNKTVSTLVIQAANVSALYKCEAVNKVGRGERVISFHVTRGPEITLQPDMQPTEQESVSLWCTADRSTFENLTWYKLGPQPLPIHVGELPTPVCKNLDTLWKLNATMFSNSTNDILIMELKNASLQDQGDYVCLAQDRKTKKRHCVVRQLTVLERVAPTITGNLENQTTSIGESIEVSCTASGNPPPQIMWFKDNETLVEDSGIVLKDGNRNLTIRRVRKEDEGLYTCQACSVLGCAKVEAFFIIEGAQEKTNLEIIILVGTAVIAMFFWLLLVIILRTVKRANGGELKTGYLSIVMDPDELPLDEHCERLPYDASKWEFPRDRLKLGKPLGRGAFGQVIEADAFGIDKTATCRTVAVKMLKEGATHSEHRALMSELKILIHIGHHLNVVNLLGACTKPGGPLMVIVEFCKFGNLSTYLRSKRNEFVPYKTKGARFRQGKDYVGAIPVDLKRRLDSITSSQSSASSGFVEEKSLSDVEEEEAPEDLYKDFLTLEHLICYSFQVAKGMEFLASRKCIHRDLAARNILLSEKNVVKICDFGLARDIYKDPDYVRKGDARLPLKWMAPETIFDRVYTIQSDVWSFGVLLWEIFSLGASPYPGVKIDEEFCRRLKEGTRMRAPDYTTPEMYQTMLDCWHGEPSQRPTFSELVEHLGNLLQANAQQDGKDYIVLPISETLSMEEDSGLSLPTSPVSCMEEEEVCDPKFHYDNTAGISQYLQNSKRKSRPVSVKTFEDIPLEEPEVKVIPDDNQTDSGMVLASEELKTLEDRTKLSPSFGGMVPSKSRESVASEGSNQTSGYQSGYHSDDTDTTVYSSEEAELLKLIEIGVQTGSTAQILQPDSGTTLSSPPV
# Protocol: 2. Biochemical kinase assay procedure
# The inhibitory activity against different kinases was determined using kinase kits […]
# from BPS Biosciences and kinase-Glo Max luminescence kinase assay kit (Promega).
# The assay was carried out according to the protocol provided by the manufacturer. A stock solution of the synthesized derivatives in 100% DMSO was prepared. Subsequently, the compounds were diluted to 10% DMSO.
# A master mixture was prepared according to the number of wells. For VEGFR-2 and FGFR-1 biochemical assays each well include 6 μl of 5x Kinase Buffer 1 + 1 μl of 500 μM ATP + 1 μl of PTK Substrate (Poly-Glu,Tyr 4:1) (10 mg/ml) + 17 μl of distilled water. For BRAF assay each well include 6 μl of 5x Kinase Buffer 1 + 1 μl of ATP (500 μM) + 10 μl of 5X Raf substrate + 8 μl of distilled water. 1x Kinase buffer 1 was prepared by mixing 600 μl of 5x Kinase Buffer 1 with 2400 μl water to give 3 mL. Kinases were thawed on ice and were diluted with 1x Kinase Buffer 1.
# To start the biochemical reaction, 25 µL of the master mixture was added to each well in 96 well plate. 5 µL of 10% DMSO was added to positive control wells and blank wells. 5 µL of diluted inhibitor was added to each well labelled with the test inhibitor so that the final concentration of DMSO is 1% in all reactions. Then 20 µL of (1 ng / μl) in case of VEGFR-2 and FGFR-1 or (2.5 ng/μl) in case of BRAF in 1x kinase buffer was added to positive control wells and wells labelled with the inhibitor, while 20 µL 1x kinase buffer 1 was added to the […]
# The plate was incubated at 30 °C for 45 min. Subsequently, 50 μl of Kinase-Glo Max luminescence reagent was added to each well and the plate was covered with aluminum foil and incubated at room temperature 15 min. Finally, the luminescence was recorded using multimode microplate reader. Kinase activity assays were performed in duplicate at each […]
# The luminescence data were analyzed as follows. The difference between luminescence intensities in the absence of kinase (Lut) and in the presence of kinase (Luc) was defined as 100 % activity (Lut – Luc). Using luminescence signal (Lu) in the presence of the compound, % activity was calculated as: % activity = {(Lut - Lu)/(Lut - Luc)}×100%. The […]
# concentration of the test compounds required to reduce the kinase activity by 50% was determined from dose-response curves and recorded as their IC50. […]
# [2] = mean over NCI 60 cell lines, > 100% = lethal effect, read-out: mean growth inhibition % (GI%)
# [3] = mean over NCI panel of 60 tumor cell lines, read-out: Mean growth inhibition %
Compound,inhibition at 10 µM (UACC-257) [%],inhibition at 10 µM (TK-10) [%],inhibition at 10 µM (HOP-62) [%],inhibition at 10 µM (HOP-92) [%],inhibition at 10 µM (HCC-2998) [%],inhibition at 10 µM (HCT-116) [%],inhibition at 10 µM (RPMI-8226) [%],inhibition at 10 µM (SNB-75) [%],"inhibition at 10 µM [1, 2] [%]","inhibition at 10 µM [1, 3] [%]",inhibition at 10 µM (VEGFR-2) [%],GI50 (UACC-257) [µM],GI50 (TK-10) [µM],GI50 (HOP-62) [µM],GI50 (HCC-2998) [µM],GI50 (HCT-116) [µM],GI50 (RPMI-8226) [µM],GI50 (SNB-75) [µM],GI50 [1] [µM],"GI50 (HOP-92; HOP-92, Non-small cell lung cancer, five-dose) [µM]"
"COc1cccc(C=NNC(=O)c2ccc3[nH]c(-c4ccccc4)nc3c2)c1 [8c, N'-(3-Methoxybenzylidene)-2-phenyl-1H-benzo[d]imidazole-5-carbohydrazide]",14.6,< 5,15.4,< 5,< 5,12.7,81.6,11,20.7,20.7,18.5 ± 0.95,–,–,–,–,–,–,–,–,–
"COc1ccc(-c2nc3cc(C(=O)NN=Cc4cc(OC)c(OC)c(OC)c4)ccc3[nH]2)cc1 [8n, 2-(4-Methoxyphenyl)-N'-(3,4,5-trimethoxybenzylidene)-1H-benzo[d]imidazole-5-carbohydrazide]",25.6,< 5,14.6,< 5,< 5,23.4,44.5,< 5,13.6,13.6,20.8 ± 1.78,–,–,–,–,–,–,–,–,–
"COc1cccc(C=NNC(=O)c2ccc3[nH]c(-c4ccc(Cl)cc4)nc3c2)c1 [8q, 2-(4-Chlorophenyl)-N'-(3-methoxybenzylidene)-1H-benzo[d]imidazole-5-carbohydrazide]",> 100,> 100,> 100,> 100,79.6,> 100,> 100,> 100,> 100,> 100,21.5 ± 1.54,4.8,23.9,1.92,4.42,3.06,1.47,5.69,5.4,–
"COc1ccc(-c2nc3cc(C(=O)NN=Cc4ccc(OC)c(O)c4)ccc3[nH]2)cc1 [8l, N'-(3-Hydroxy-4-methoxybenzylidene)-2-(4-methoxyphenyl)-1H-benzo[d]imidazole-5-carbohydrazide]",52.9,< 5,55.5,17.4,15,43.8,32.4,25.8,34.4,34.4,50.6 ± 5.29,–,–,–,–,–,–,–,–,–
"COc1ccc(-c2nc3cc(C(=O)NN=Cc4ccccc4O)ccc3[nH]2)cc1 [8h, N'-(2-Hydroxybenzylidene)-2-(4-methoxyphenyl)-1H-benzo[d]imidazole-5-carbohydrazide]",85,> 100,> 100,> 100,99.6,> 100,96.7,95.6,> 100,> 100,62.9 ± 3.89,6.32,6.19,5.09,4.43,4.93,1.39,0.39,2.98,2.83
"O=C(NN=Cc1cccc(O)c1)c1ccc2[nH]c(-c3ccccc3)nc2c1 [8b, N'-(3-Hydroxybenzylidene)-2-phenyl-1H-benzo[d]imidazole-5-carbohydrazide]",< 5,< 5,19.3,< 5,< 5,< 5,9.59,6.56,8.49,8.49,23.8 ± 1.47,–,–,–,–,–,–,–,–,–

# — paper PMC10893631, “Receptor-based pharmacophore modeling, molecular docking, synthesis and biological evaluation of novel VEGFR-2, FGFR-1, and BRAF multi-kinase inhibitors” (BMC Chemistry, 2024)
